Results reported in patent US5116851A, “Pharmaceutical composition and method for treating cardiovascular diseases using substituted anilides and sulfonamides” (E. R. Squibb & Sons, Inc., priority 1990, dated 1992).
Where a name gives a salt, the structure may show the parent alone. Values belong to the compound of their own block, whether it stands above or below them.

What was measured:
[1] = tested on: Ischemic and Nonischemic Isolated Rat Heart; assay: Isolated perfused rat heart (Langendorff), global ischemia/reperfusion: cardiac function, flow and LDH release; design: species or system rat (male Sprague-Dawley); FLOW (coronary blood flow): unit not given here; details: 1 μM; for LDH (Lactate Dehydrogenase Release): Postischemia, cumulative over 30 min reperfusion, per g preischemia heart weight, lower = greater cardioprotection; for LDH/DP: ratio of cardioprotection to cardiodepression, lower = greater selectivity; for cardioprotection compared with diltiazem: post-ischemia LDH
Protocol: Lactate dehydrogenase is an enzyme released in the heart during an ischemic event and is an index of cardiac cell necrosis. In the Grover et al. model, this is measured during reperfusion and an agent which provides for lower release levels of LDH is considered to offer greater cardioprotection since lower LDH indicates a smaller infarct size. Cardiac function is determined using the double product (DP) of heart rate times the left ventricular developed pressure (LVDP) divided by 1,000.
The lower the value for DP before ischemia for a given agent, the more cardiodepressant it is considered to be.
Male Sprague-Dawley rats (450-550 g) were used in all experiments. The rats were anesthetized using 30 mg/kg sodium pentobarbital (i.p.). They were intubated and then treated with i.v. heparin (1000 U/kg). While being mechanically ventilated, their hearts were perfused in situ via retrograde cannulation of the aorta. The hearts were then excised and quickly moved to a Langendorff apparatus where they were perfused with Krebs-Henseleit bicarbonate buffer (112 mM NaCl, 5 mM KCl, 1.2 mMMg SO4, 1 mM KH2 PO4, 1.25 mM CaCl2, 11.5 mM dextrose, and 2 mM pyruvate) at a constant pressure (75 mm Hg). A water filled latex balloon attached to a metal cannula was then inserted into the left ventricle and connected to a Statham pressure transducer for measurement of left ventricular pressure. The hearts were allowed to equilibrate for 15 minutes at which time end diastolic pressure (EDP) was adjusted to 5 mm Hg and this was maintained for 5 minutes. Pre-ischemia or pre-drug function, heart rate and coronary blood flow (extracorporeal electromagnetic flow probe, Carolina Medical Electronics, King, N.C.) were then measured. Cardiac function was determined using the double product of heart rate (HR) times left ventricular developed pressure (LVDP) divided by 1,000.
All of these hearts were treated with their respective drugs or vehicle for ten minutes. At this time, post-drug cardiac function and flow were measured and then the hearts were made globally ischemic by shutting off the buffer perfusion. The ischemia was maintained for 25 minutes at which time reperfusion with nondrug treated buffer was instituted. Reperfusion was maintained for 30 minutes and at this time reperfusion function and flow were again determined.
At the end of the reperfusion period, the reperfusion buffer was sampled for cumulative LDH release as previously described. LDH release was expressed as U/g preischemia heart weight for the 30 minute collection period. LDH release is a sensitive index for loss of cell viability. Determination of the relationship between pre-ischemic, post-drug cardiac function was made by dividing the double product (HR ×LVDP/1000) by the cumulative LDH release.
All data were analyzed using a one way analysis of variance. Multiple comparisons were done using the Duncan procedure. All data are expressed as the mean±SE.
The pre-ischemia DP values are a measure of the cardiodepression of the drug on the healthy cardiac tissue.
The post-ischemia LDH values are a measure of the cardioprotection or anti-ischemic activity of the drug. In this case, lower values indicate greater anti-ischemic activity or greater cardioprotection.
The LDH/DP values are the ratio of cardioprotection to cardiodepression, the lower values indicating a greater selectivity for anti-ischemic activity.
The post-ischemia DP indicates cardiodepression after the ischemic episode and the lower DP values here are indicative of agents which still remained in the cardiac tissue for more than 30 minutes post ischemia. [drawing 16]

[2] = tested on: isolated canine cardiac Purkinje fibers; assay: Normal action potential parameters incl. upstroke velocity (Vmax; sodium entry), standard microelectrode techniques; assay type: cell-based; details: for Vmax (velocity of upstroke): in V/s (unit assumed)
Protocol: (§1) The calcium channel blocking and sodium entry blocking activities of compounds of the present invention were tested using standard microelectrode techniques in isolated canine cardiac Purkinje fibers as reported in J. L. Bergey et al., "Antiarrhythmic, hemodynamic, and cardiac electrophysiological evaluation of N-(2,6-dimethylphenyl)-N'-[3-(1-methylethylamino)propyl]-urea), (Wy 42,362)", Arzneim -Forsch, 33:1258, 1983). […] Depression of this parameter indicates depression of calcium entry into cardiac tissue. […] Significant depression of the upstroke velocity (vmax) indicates the blocking of sodium entry into cardiac tissue.

rabbit aorta = assay: Reduction of tone of rabbit aorta by high potassium (Vasc. Ca^++ Block); assay type: cell-based; details: Oryctolagus cuniculus; read-out: IC50 in reducing tone of rabbit aorta by high potassium (Vasc. Ca^++ Block)
From the text: |(SAPA), in reducing maximum upstroke velocity (Vmax) |and in reducing tone of rabbit aorta by high potassium |(Vasc. Ca^++ Block)

[3] = tested on: isolated canine cardiac Purkinje fibers; assay: Calcium-dependent slow response action potential amplitude (SAPA), standard microelectrode techniques; assay type: cell-based; details: Canis lupus familiaris, read-out: IC50 in reducing slow response action potential amplitude (SAPA)
Protocol: as §1

[4] = Postischemia (30 min.), occlusion 25 minutes, reperfusion 30 minutes
[5] = Preischemia (Post Drug), lower = more cardiodepressant

SMILES: CN(C)CCN(C(=O)Cc1ccccc1)c1ccccc1SCc1ccccc1.Cl [Example 4, N-[2-(Dimethylamino)ethyl]-N-[2-[(phenylmethyl)thio]phenyl]benzeneacetamide, monohydrochloride]
- DP (Double Product, HR x LVDP / 1,000) [1, 4]: 15
- FLOW (coronary blood flow) [1, 4]: 15
- HR (Heart Rate) [1, 4]: 239 beats/min
- LVDP (Left Ventricular Developed Pressure) [1, 4]: 60 mmHg
- LDH (Lactate Dehydrogenase Release) [1]: 21 U/g
- FLOW (coronary blood flow) ([1]; Preischemia (Post Drug)): 20
- HR (Heart Rate) ([1]; Preischemia (Post Drug)): 236 beats/min
- LVDP (Left Ventricular Developed Pressure) ([1]; Preischemia (Post Drug)): 123 mmHg
- DP (Double Product, HR x LVDP / 1,000) [1, 5]: 30
- LDH/DP [1]: 0.79

- IC50 (rabbit aorta): 1700 nM
- IC50 [3]: 1500 nM
SMILES: CN(C)CCCN(C(=O)Cc1ccccc1)c1ccccc1SCc1ccccc1.Cl [Example 3, N-[3-(Dimethylamino)propyl]-N-[2-[(phenylmethyl)thio]phenyl]benzeneacetamide, monohydrochloride]
- APD 50 (action potential duration @ 50% repolarization) ([2]; 1 × 10^-5): 123 ± 2
- APD90 (action potential duration @ 90% repolarization) ([2]; 1 × 10^-5): 271 ± 8
- PP (peak potential) ([2]; 1 × 10^-5): 7 ± 1
- RP (resting potential) ([2]; 1 × 10^-5): 84 ± 1
- Vmax (velocity of upstroke) ([2]; 1 × 10^-5): 156 ± 11
- APD 50 (action potential duration @ 50% repolarization) ([2]; 1 × 10^-6): 181 ± 5
- APD90 (action potential duration @ 90% repolarization) ([2]; 1 × 10^-6): 282 ± 2
- PP (peak potential) ([2]; 1 × 10^-6): 32 ± 1
- RP (resting potential) ([2]; 1 × 10^-6): 88 ± 1
- Vmax (velocity of upstroke) ([2]; 1 × 10^-6): 401 ± 16
- APD 50 (action potential duration @ 50% repolarization) ([2]; 3 × 10^-6): 125 ± 3
- APD90 (action potential duration @ 90% repolarization) ([2]; 3 × 10^-6): 251 ± 1
- PP (peak potential) ([2]; 3 × 10^-6): 26 ± 1
- RP (resting potential) ([2]; 3 × 10^-6): 88 ± 1
- Vmax (velocity of upstroke) ([2]; 3 × 10^-6): 286 ± 9
- IC50 ([2]; Canis lupus familiaris, purkinje, sodium entry, read-out: IC50 in reducing maximum upstroke velocity (Vmax)): 3800 nM
- DP (Double Product, HR x LVDP / 1,000) [1, 4]: 22
- FLOW (coronary blood flow) [1, 4]: 11
- HR (Heart Rate) [1, 4]: 238 beats/min
- LVDP (Left Ventricular Developed Pressure) [1, 4]: 93 mmHg
- LDH (Lactate Dehydrogenase Release) [1]: 5.2 U/g
- FLOW (coronary blood flow) ([1]; Preischemia (Post Drug)): 18
- HR (Heart Rate) ([1]; Preischemia (Post Drug)): 243 beats/min
- LVDP (Left Ventricular Developed Pressure) ([1]; Preischemia (Post Drug)): 79 mmHg
- DP (Double Product, HR x LVDP / 1,000) [1, 5]: 19
- cardioprotection compared with diltiazem [1]: offered more cardioprotection than diltiazem
- LDH/DP [1]: 0.30

SMILES: COc1cc(SCc2ccccc2)c(N(CCCN(C)C)C(=O)Cc2ccccc2)cc1OC [Example 8, N-[3-(Dimethylamino)propyl]-N-[4,5-dimethoxy-2-sulfonyl),[(phenylmethyl)thio]phenyl]benzeneacetamide, oxalate (1:1) salt]
- DP (Double Product, HR x LVDP / 1,000) [1, 4]: 17
- FLOW (coronary blood flow) [1, 4]: 8
- HR (Heart Rate) [1, 4]: 246 beats/min
- LVDP (Left Ventricular Developed Pressure) [1, 4]: 71 mmHg
- LDH (Lactate Dehydrogenase Release) [1]: 3.7 U/g
- FLOW (coronary blood flow) ([1]; Preischemia (Post Drug)): 19
- HR (Heart Rate) ([1]; Preischemia (Post Drug)): 216 beats/min
- LVDP (Left Ventricular Developed Pressure) ([1]; Preischemia (Post Drug)): 65 mmHg
- DP (Double Product, HR x LVDP / 1,000) [1, 5]: 14
- LDH/DP [1]: 0.26

SMILES: COc1ccc(CSc2cc(Cl)ccc2N(CCCN(C)C)C(=O)Cc2ccccc2)cc1.Cl [Example 9, N-[3-(Dimethylamino)propyl]-N-[4-chloro-2-[[(4-methoxyphenyl)methyl]thio]phenyl]benzeneacetamide, monohydrochloride]
- DP (Double Product, HR x LVDP / 1,000) [1, 4]: 11
- FLOW (coronary blood flow) [1, 4]: 9
- HR (Heart Rate) [1, 4]: 214 beats/min
- LVDP (Left Ventricular Developed Pressure) [1, 4]: 52 mmHg
- LDH (Lactate Dehydrogenase Release) [1]: 8.2 U/g
- FLOW (coronary blood flow) ([1]; Preischemia (Post Drug)): 18
- HR (Heart Rate) ([1]; Preischemia (Post Drug)): 226 beats/min
- LVDP (Left Ventricular Developed Pressure) ([1]; Preischemia (Post Drug)): 126 mmHg
- DP (Double Product, HR x LVDP / 1,000) [1, 5]: 29
- cardioprotection compared with diltiazem [1]: comparable to diltiazem in cardioprotection
- LDH/DP [1]: 0.29

SMILES: COc1ccc(CSc2ccccc2N(CCCN(C)C)C(=O)Cc2ccccc2)cc1 [Example 2, N-[3-(Dimethylamino)propyl]-N-[2-[[(4-methoxyphenyl)methyl]thio]phenyl]benzeneacetamide, monohydrochloride]
- DP (Double Product, HR x LVDP / 1,000) [1, 4]: 14
- FLOW (coronary blood flow) [1, 4]: 11
- HR (Heart Rate) [1, 4]: 188 beats/min
- LVDP (Left Ventricular Developed Pressure) [1, 4]: 73 mmHg
- LDH (Lactate Dehydrogenase Release) [1]: 8.9 U/g
- FLOW (coronary blood flow) ([1]; Preischemia (Post Drug)): 20
- HR (Heart Rate) ([1]; Preischemia (Post Drug)): 219 beats/min
- LVDP (Left Ventricular Developed Pressure) ([1]; Preischemia (Post Drug)): 135 mmHg
- DP (Double Product, HR x LVDP / 1,000) [1, 5]: 29
- LDH/DP [1]: 0.30
